Data from patent US10730872B2, “Pesticidally active heterocyclic derivatives with sulphur containing sustitutents” (SYNGENTA PARTICIPATIONS AG, priority 2015, dated 2020).

Experiments:
Format in all cases: in vivo
Euschistus heros = Euschistus heros (Neotropical Brown Stink Bug); details: 120 h, application rate of 200 ppm, sprayed soybean leaves, N2 nymphs, 5 days after infestation, read-out: effect in at least one of the two categories (mortality or growth inhibition)
Experimental: Soybean leaves on agar in 24-well microtiter plates were sprayed with aqueous test solutions prepared from 10,000 ppm DMSO stock solutions. After drying the leaves were infested with N2 nymphs. The samples were assessed for mortality and growth inhibition in comparison to untreated samples 5 days after infestation.

Spodoptera littoralis = Spodoptera littoralis (Egyptian Cotton Leaf Worm), sprayed cotton leaf discs; details: foliar, 72 h, application rate of 200 ppm, L1 larvae, 3 days after infestation
Experimental: Cotton leaf discs were placed onto agar in 24-well microtiter plates and sprayed with aqueous test solutions prepared from 10,000 ppm DMSO stock solutions. After drying the leaf discs were infested with five L1 larvae. The samples were assessed for mortality, anti-feeding effect, and growth inhibition in comparison to untreated samples 3 days after infestation. Control of Spodoptera littoralis by a test sample is given when at least one of the categories mortality, anti-feedant effect, and growth inhibition is higher than the untreated sample.

Bemisia tabaci = Bemisia tabaci (Cotton White Fly): Feeding/Contact Activity; details: foliar, 144 h, application rate of 200 ppm, sprayed cotton leaf discs, adult white flies, 6 days after incubation
Experimental: Cotton leaf discs were placed on agar in 24-well microtiter plates and sprayed with aqueous test solutions prepared from 10,000 ppm DMSO stock solutions. After drying the leaf discs were infested with adult white flies. The samples were checked for mortality 6 days after incubation.

Myzus persicae [1] = experiment: Myzus persicae (Green Peach Aphid): Feeding/Contact Activity; details: foliar, 144 h, application rate of 200 ppm, sprayed sunflower leaf discs, aphid population of mixed ages, 6 days after infestation
Experimental: Sunflower leaf discs were placed onto agar in a 24-well microtiter plate and sprayed with aqueous test solutions prepared from 10,000 ppm DMSO stock solutions. After drying, the leaf discs were infested with an aphid population of mixed ages. The samples were assessed for mortality 6 days after infestation.

Myzus persicae [2] = experiment: Myzus persicae (Green Peach Aphid). Systemic Activity; details: 144 h, test rate of 24 ppm, roots of infested pea seedlings in test solution, 6 days
Experimental: Roots of pea seedlings infested with an aphid population of mixed ages were placed directly into aqueous test solutions prepared from 10,000 DMSO stock solutions. The samples were assessed for mortality 6 days after placing seedlings into test solutions.

Plutella xylostella = Plutella xylostella (Diamond Back Moth); details: 120 h, application rate of 200 ppm, artificial diet, L2 larvae, 5 days after infestation, read-out: effect in at least one of the two categories (mortality or growth inhibition)
Experimental: (§1) 24-well microtiter plates with artificial diet were treated with aqueous test solutions prepared from 10,000 ppm DMSO stock solutions by pipetting. After drying, the plates were infested with L2 larvae (10 to 15 per well). The samples were assessed for mortality and growth inhibition in comparison to untreated samples 5 days after infestation.

Diabrotica balteata = Diabrotica balteata (Corn Root Worm); details: 96 h, application rate of 200 ppm, sprayed maize sprouts, L2 larvae, 4 days after infestation, read-out: effect in at least one of the two categories (mortality or growth inhibition)
Experimental: as §1, with “Maize sprouts placed onto an agar layer in 24-well” for “24-well”, “plates” for “plates with artificial diet”, “spraying.” for “pipetting.”, “(6” for “(10”, “10” for “15”, “4” for “5”

CCn1c(C(F)(F)F)cc2nc(-c3ncc(C(=O)NC4(C#N)CC4)cc3S(=O)(=O)CC)n(C)c2c1=O [Compound A25, N-(1-cyanocyclopropyl)-6-[5-ethyl-3-methyl-4-oxo-6-(trifluoromethyl)imidazo[4,5-c]pyridin-2-yl]-5-ethylsulfonyl-pyridine-3-carboxamide]
≥ 80%: percent effect (mortality or growth inhibition) at 200 ppm (Euschistus heros) | percent control (mortality, anti-feeding effect or growth inhibition) at 200 ppm (Spodoptera littoralis)

CCn1c(C(F)(F)F)cc2nc(-c3nc(C(=O)N(C)C4CC4)ccc3S(=O)(=O)CC)n(C)c2c1=O [Compound A18, N-cyclopropyl-6-[5-ethyl-3-methyl-4-oxo-6-(trifluoromethyl)imidazo[4,5-c]pyridin-2-yl]-5-ethylsulfonyl-N-methyl-pyridine-2-carboxamide]
≥ 80%: mortality at 200 ppm (Bemisia tabaci) | mortality at 200 ppm (Myzus persicae [1]) | mortality at 24 ppm (Myzus persicae [2]) | percent effect (mortality or growth inhibition) at 200 ppm (Plutella xylostella) | percent control (mortality, anti-feeding effect or growth inhibition) at 200 ppm (Spodoptera littoralis)

CCn1c(C(F)(F)F)cc2nc(-c3ncc(N(C)S(=O)(=O)C4CC4)cc3S(=O)(=O)CC)n(C)c2c1=O [Compound A37, N-[6-[5-ethyl-3-methyl-4-oxo-6-(trifluoromethyl)imidazo[4,5-c]pyridin-2-yl]-5-ethylsulfonyl-3-pyridyl]-N-methyl-cyclopropanesulfonamide]
≥ 80%: mortality at 200 ppm (Bemisia tabaci) | effect mortality or growth inhibition at 200 ppm (Diabrotica balteata) | percent effect (mortality or growth inhibition) at 200 ppm (Euschistus heros) | percent effect (mortality or growth inhibition) at 200 ppm (Plutella xylostella) | percent control (mortality, anti-feeding effect or growth inhibition) at 200 ppm (Spodoptera littoralis)

CCn1c(C(F)(F)F)cc2nc(-c3ncc(NC4(C#N)CC4)cc3[S+]([O-])CC)n(C)c2c1=O (centres unmarked) [Compound A57, 1-[[6-[5-ethyl-3-methyl-4-oxo-6-(trifluoromethyl)imidazo[4,5-c]pyridin-2-yl]-5-ethylsulfinyl-3-pyridyl]amino]cyclopropanecarbonitrile]
≥ 80%: effect mortality or growth inhibition at 200 ppm (Diabrotica balteata) | percent effect (mortality or growth inhibition) at 200 ppm (Plutella xylostella) | percent control (mortality, anti-feeding effect or growth inhibition) at 200 ppm (Spodoptera littoralis)

CCS(=O)(=O)c1ccc(NC(=O)OC(C)(C)C)nc1-c1nc2cc(C(F)(F)F)n(C3CC3)c(=O)c2n1C [Compound A63, Tert-butyl N-[6-[5-cyclopropyl-3-methyl-4-oxo-6-(trifluoromethyl)imidazo[4,5-c]pyridin-2-yl]-5-ethylsulfonyl-2-pyridyl]carbamate]
≥ 80%: mortality at 200 ppm (Bemisia tabaci) | effect mortality or growth inhibition at 200 ppm (Diabrotica balteata) | percent effect (mortality or growth inhibition) at 200 ppm (Plutella xylostella) | percent control (mortality, anti-feeding effect or growth inhibition) at 200 ppm (Spodoptera littoralis)

CCn1c(C(F)(F)F)cc2nc(-c3ncc(NC4CC4)cc3[S+]([O-])CC)n(C)c2c1=O (centres unmarked) [Compound A58, 2-[5-(cyclopropylamino)-3-ethylsulfinyl-2-pyridyl]-5-ethyl-3-methyl-6-(trifluoromethyl)imidazo[4,5-c]pyridin-4-one]
≥ 80%: effect mortality or growth inhibition at 200 ppm (Diabrotica balteata)

CCn1c(C(F)(F)F)cc2nc(-c3ncc(NC(=O)C4(C#N)CC4)cc3S(=O)(=O)CC)n(C)c2c1=O [Compound A55, 1-cyano-N-[6-[5-ethyl-3-methyl-4-oxo-6-(trifluoromethyl)imidazo[4,5-c]pyridin-2-yl]-5-ethylsulfonyl-3-pyridyl]cyclopropanecarboxamide]
≥ 80%: mortality at 200 ppm (Myzus persicae [1]) | mortality at 24 ppm (Myzus persicae [2]) | percent effect (mortality or growth inhibition) at 200 ppm (Plutella xylostella) | percent control (mortality, anti-feeding effect or growth inhibition) at 200 ppm (Spodoptera littoralis)

CCn1c(C(F)(F)F)cc2nc(-c3nc(N)c(C#N)cc3S(=O)(=O)CC)n(C)c2c1=O [Compound A72]
≥ 80%: percent effect (mortality or growth inhibition) at 200 ppm (Euschistus heros) | mortality at 24 ppm (Myzus persicae [2]) | percent effect (mortality or growth inhibition) at 200 ppm (Plutella xylostella) | percent control (mortality, anti-feeding effect or growth inhibition) at 200 ppm (Spodoptera littoralis)

CCn1c(C(F)(F)F)cc2nc(-c3ncc(N(C)/C=N/OC)cc3S(=O)(=O)CC)n(C)c2c1=O [Compound A27, N-[6-[5-ethyl-3-methyl-4-oxo-6-(trifluoromethyl)imidazo[4,5-c]pyridin-2-yl]-5-ethylsulfonyl-3-pyridyl]-N′-methoxy-N-methyl-formamidine]
≥ 80%: percent effect (mortality or growth inhibition) at 200 ppm (Plutella xylostella) | percent control (mortality, anti-feeding effect or growth inhibition) at 200 ppm (Spodoptera littoralis)

CCS(=O)(=O)c1ccc(NOC)nc1-c1nc2cc(C(F)(F)F)n(C3CC3)c(=O)c2n1C [Compound A46, 5-cyclopropyl-2-[3-ethylsulfonyl-6-(methoxyamino)-2-pyridyl]-3-methyl-6-(trifluoromethyl)imidazo[4,5-c]pyridin-4-one]
≥ 80%: effect mortality or growth inhibition at 200 ppm (Diabrotica balteata) | percent effect (mortality or growth inhibition) at 200 ppm (Euschistus heros) | percent effect (mortality or growth inhibition) at 200 ppm (Plutella xylostella) | percent control (mortality, anti-feeding effect or growth inhibition) at 200 ppm (Spodoptera littoralis)

CCn1c(C(F)(F)F)cc2nc(-c3nc(N(C)CC(F)(F)F)ccc3S(=O)(=O)CC)n(C)c2c1=O [Compound A33]
≥ 80%: effect mortality or growth inhibition at 200 ppm (Diabrotica balteata) | percent effect (mortality or growth inhibition) at 200 ppm (Plutella xylostella) | percent control (mortality, anti-feeding effect or growth inhibition) at 200 ppm (Spodoptera littoralis)

CCn1c(C(F)(F)F)cc2nc(-c3nc(Br)c(N)cc3S(=O)(=O)CC)n(C)c2c1=O [Compound A54, 2-(5-amino-6-bromo-3-ethylsulfonyl-2-pyridyl)-5-ethyl-3-methyl-6-(trifluoromethyl)imidazo[4,5-c]pyridin-4-one]
≥ 80%: effect mortality or growth inhibition at 200 ppm (Diabrotica balteata) | percent effect (mortality or growth inhibition) at 200 ppm (Plutella xylostella) | percent control (mortality, anti-feeding effect or growth inhibition) at 200 ppm (Spodoptera littoralis)

CCn1c(C(F)(F)F)cc2nc(-c3ncc(NS(=O)(=O)C4CC4)cc3S(=O)(=O)CC)n(C)c2c1=O [Compound A36, N-[6-[5-ethyl-3-methyl-4-oxo-6-(trifluoromethyl)imidazo[4,5-c]pyridin-2-yl]-5-ethylsulfonyl-3-pyridyl]cyclopropanesulfonamide]
≥ 80%: mortality at 200 ppm (Myzus persicae [1])

CCS(=O)(=O)c1cc(C)c(N)nc1-c1nc2cc(C(F)(F)F)n(C3CC3)c(=O)c2n1C [Compound A49, 2-(6-amino-5-methyl-3-ethylsulfonyl-2-pyridyl)-5-cyclopropyl-3-methyl-6-(trifluoromethyl)imidazo[4,5-c]pyridin-4-one]
≥ 80%: mortality at 200 ppm (Bemisia tabaci) | effect mortality or growth inhibition at 200 ppm (Diabrotica balteata) | mortality at 200 ppm (Myzus persicae [1]) | mortality at 24 ppm (Myzus persicae [2]) | percent effect (mortality or growth inhibition) at 200 ppm (Plutella xylostella) | percent control (mortality, anti-feeding effect or growth inhibition) at 200 ppm (Spodoptera littoralis)

CCn1c(C(F)(F)F)cc2nc(-c3ncc(C(=O)NCC#N)cc3S(=O)(=O)CC)n(C)c2c1=O [Compound A28, N-(cyanomethyl)-6-[5-ethyl-3-methyl-4-oxo-6-(trifluoromethyl)imidazo[4,5-c]pyridin-2-yl]-5-ethylsulfonyl-pyridine-3-carboxamide]
≥ 80%: percent effect (mortality or growth inhibition) at 200 ppm (Euschistus heros) | mortality at 200 ppm (Myzus persicae [1]) | mortality at 24 ppm (Myzus persicae [2]) | percent effect (mortality or growth inhibition) at 200 ppm (Plutella xylostella)

CCn1c(C(F)(F)F)cc2nc(-c3ncc(N(C)N(C)C(=O)C4CC4)cc3S(=O)(=O)CC)n(C)c2c1=O [Compound A22, N′-[6-[5-ethyl-3-methyl-4-oxo-6-(trifluoromethyl)imidazo[4,5-c]pyridin-2-yl]-5-ethylsulfonyl-3-pyridyl]-N,N′-dimethyl-cyclopropanecarbohydrazide]
≥ 80%: percent effect (mortality or growth inhibition) at 200 ppm (Euschistus heros) | mortality at 24 ppm (Myzus persicae [2]) | percent effect (mortality or growth inhibition) at 200 ppm (Plutella xylostella) | percent control (mortality, anti-feeding effect or growth inhibition) at 200 ppm (Spodoptera littoralis)

CCn1c(C(F)(F)F)cc2nc(-c3nc(C(C)=O)ccc3S(=O)(=O)CC)n(C)c2c1=O [Compound A70, 2-(6-acetyl-3-ethylsulfonyl-2-pyridyl)-5-ethyl-3-methyl-6-(trifluoromethyl)imidazo[4,5-c]pyridin-4-one]
≥ 80%: percent effect (mortality or growth inhibition) at 200 ppm (Plutella xylostella)

CCn1c(C(F)(F)F)cc2nc(-c3ncc(C(=O)N(C)C4CC4)cc3S(=O)(=O)CC)n(C)c2c1=O [Compound A17, N-cyclopropyl-6-[5-ethyl-3-methyl-4-oxo-6-(trifluoromethyl)imidazo[4,5-c]pyridin-2-yl]-5-ethylsulfonyl-N-methyl-pyridine-3-carboxamide]
≥ 80%: percent effect (mortality or growth inhibition) at 200 ppm (Euschistus heros) | mortality at 24 ppm (Myzus persicae [2]) | percent effect (mortality or growth inhibition) at 200 ppm (Plutella xylostella)
